Measured values as given in BigSolDB 2.1.

Compound: COc1c(NS(=O)(=O)c2ccc(F)cc2)cc(-c2ccc3nccc(N4CCOCC4)c3c2)cc1C(N)=O
- solubility (mole fraction) (in acetone, 288.15 K): 0.000608
- solubility (mole fraction) (in acetone, 293.15 K): 0.000638
- solubility (mole fraction) (in acetone, 298.15 K): 0.000704
- solubility (mole fraction) (in acetone, 303.15 K): 0.000817
- solubility (mole fraction) (in acetone, 308.15 K): 0.000941
- solubility (mole fraction) (in acetone, 313.15 K): 0.00102
- solubility (mole fraction) (in acetone, 318.15 K): 0.00115
- solubility (mole fraction) (in chloroform, 288.15 K): 5.21e-05
- solubility (mole fraction) (in chloroform, 293.15 K): 5.44e-05
- solubility (mole fraction) (in chloroform, 298.15 K): 5.86e-05
- solubility (mole fraction) (in chloroform, 303.15 K): 6.66e-05
- solubility (mole fraction) (in chloroform, 308.15 K): 7.72e-05
- solubility (mole fraction) (in chloroform, 313.15 K): 9.58e-05
- solubility (mole fraction) (in chloroform, 318.15 K): 0.000121
- solubility (mole fraction) (in chloroform, 323.15 K): 0.000149
- solubility (mole fraction) (in chloroform, 328.15 K): 0.000188
- solubility (mole fraction) (in ethyl acetate, 288.15 K): 9.85e-05
- solubility (mole fraction) (in ethyl acetate, 293.15 K): 0.000115
- solubility (mole fraction) (in ethyl acetate, 298.15 K): 0.000127
- solubility (mole fraction) (in ethyl acetate, 303.15 K): 0.000138
- solubility (mole fraction) (in ethyl acetate, 308.15 K): 0.00016
- solubility (mole fraction) (in ethyl acetate, 313.15 K): 0.000182
- solubility (mole fraction) (in ethyl acetate, 318.15 K): 0.000187
- solubility (mole fraction) (in ethyl acetate, 323.15 K): 0.000183
- solubility (mole fraction) (in ethyl acetate, 328.15 K): 0.000183
- solubility (mole fraction) (in methanol, 288.15 K): 0.000259
- solubility (mole fraction) (in methanol, 293.15 K): 0.000298
- solubility (mole fraction) (in methanol, 298.15 K): 0.000338
- solubility (mole fraction) (in methanol, 303.15 K): 0.000398
- solubility (mole fraction) (in methanol, 308.15 K): 0.000473
- solubility (mole fraction) (in methanol, 313.15 K): 0.000518
- solubility (mole fraction) (in methanol, 318.15 K): 0.000666
- solubility (mole fraction) (in methanol, 323.15 K): 0.000829
- solubility (mole fraction) (in methanol, 328.15 K): 0.000977
- solubility (mole fraction) (in toluene, 288.15 K): 5.82e-06
- solubility (mole fraction) (in toluene, 293.15 K): 6.02e-06
- solubility (mole fraction) (in toluene, 298.15 K): 6.59e-06
- solubility (mole fraction) (in toluene, 303.15 K): 7.29e-06
- solubility (mole fraction) (in toluene, 308.15 K): 7.86e-06
- solubility (mole fraction) (in toluene, 313.15 K): 9.04e-06
- solubility (mole fraction) (in toluene, 318.15 K): 1.03e-05
- solubility (mole fraction) (in toluene, 323.15 K): 1.23e-05
- solubility (mole fraction) (in toluene, 328.15 K): 1.4e-05
- solubility (mole fraction) (in water, 288.15 K): 3.54e-07
- solubility (mole fraction) (in water, 293.15 K): 5.68e-07
- solubility (mole fraction) (in water, 298.15 K): 7.36e-07
- solubility (mole fraction) (in water, 303.15 K): 8.18e-07
- solubility (mole fraction) (in water, 308.15 K): 9.22e-07
- solubility (mole fraction) (in water, 313.15 K): 1.08e-06
- solubility (mole fraction) (in water, 318.15 K): 1.28e-06
- solubility (mole fraction) (in water, 323.15 K): 1.47e-06
- solubility (mole fraction) (in water, 328.15 K): 1.75e-06

Compound: COc1c(NS(=O)(=O)c2ccc(F)cc2)cc(-c2ccc3ncnc(N4CCOCC4)c3c2)cc1C(N)=O
- solubility (mole fraction) (in acetone, 288.15 K): 0.000317
- solubility (mole fraction) (in acetone, 293.15 K): 0.000317
- solubility (mole fraction) (in acetone, 298.15 K): 0.000352
- solubility (mole fraction) (in acetone, 303.15 K): 0.000419
- solubility (mole fraction) (in acetone, 308.15 K): 0.000459
- solubility (mole fraction) (in acetone, 313.15 K): 0.000526
- solubility (mole fraction) (in acetone, 318.15 K): 0.000592
- solubility (mole fraction) (in chloroform, 288.15 K): 0.000145
- solubility (mole fraction) (in chloroform, 293.15 K): 0.000158
- solubility (mole fraction) (in chloroform, 298.15 K): 0.000165
- solubility (mole fraction) (in chloroform, 303.15 K): 0.000188
- solubility (mole fraction) (in chloroform, 308.15 K): 0.000223
- solubility (mole fraction) (in chloroform, 313.15 K): 0.000258
- solubility (mole fraction) (in chloroform, 318.15 K): 0.000303
- solubility (mole fraction) (in chloroform, 323.15 K): 0.00039
- solubility (mole fraction) (in chloroform, 328.15 K): 0.000495
- solubility (mole fraction) (in ethyl acetate, 288.15 K): 9.51e-05
- solubility (mole fraction) (in ethyl acetate, 293.15 K): 0.000101
- solubility (mole fraction) (in ethyl acetate, 298.15 K): 0.000114
- solubility (mole fraction) (in ethyl acetate, 303.15 K): 0.000128
- solubility (mole fraction) (in ethyl acetate, 308.15 K): 0.00015
- solubility (mole fraction) (in ethyl acetate, 313.15 K): 0.000171
- solubility (mole fraction) (in ethyl acetate, 318.15 K): 0.000196
- solubility (mole fraction) (in ethyl acetate, 323.15 K): 0.00022
- solubility (mole fraction) (in ethyl acetate, 328.15 K): 0.000239
- solubility (mole fraction) (in methanol, 288.15 K): 0.000238
- solubility (mole fraction) (in methanol, 293.15 K): 0.000301
- solubility (mole fraction) (in methanol, 298.15 K): 0.00043
- solubility (mole fraction) (in methanol, 303.15 K): 0.000428
- solubility (mole fraction) (in methanol, 308.15 K): 0.000613
- solubility (mole fraction) (in methanol, 313.15 K): 0.00078
- solubility (mole fraction) (in methanol, 318.15 K): 0.00102
- solubility (mole fraction) (in methanol, 323.15 K): 0.00105
- solubility (mole fraction) (in methanol, 328.15 K): 0.00125
- solubility (mole fraction) (in toluene, 288.15 K): 1.05e-05
- solubility (mole fraction) (in toluene, 293.15 K): 1.05e-05
- solubility (mole fraction) (in toluene, 298.15 K): 1.05e-05
- solubility (mole fraction) (in toluene, 303.15 K): 1.13e-05
- solubility (mole fraction) (in toluene, 308.15 K): 1.31e-05
- solubility (mole fraction) (in toluene, 313.15 K): 1.53e-05
- solubility (mole fraction) (in toluene, 318.15 K): 1.67e-05
- solubility (mole fraction) (in toluene, 323.15 K): 1.83e-05
- solubility (mole fraction) (in toluene, 328.15 K): 2.14e-05
- solubility (mole fraction) (in water, 288.15 K): 5.21e-07
- solubility (mole fraction) (in water, 293.15 K): 8.05e-07
- solubility (mole fraction) (in water, 298.15 K): 9.14e-07
- solubility (mole fraction) (in water, 303.15 K): 1.05e-06
- solubility (mole fraction) (in water, 308.15 K): 1.16e-06
- solubility (mole fraction) (in water, 313.15 K): 1.37e-06
- solubility (mole fraction) (in water, 318.15 K): 1.5e-06
- solubility (mole fraction) (in water, 323.15 K): 1.98e-06
- solubility (mole fraction) (in water, 328.15 K): 2.44e-06

Compound: COc1c(NS(=O)(=O)c2ccc(C)cc2)cc(-c2ccc3ncnc(N4CCOCC4)c3c2)cc1C(N)=O
- solubility (mole fraction) (in acetone, 288.15 K): 0.000635
- solubility (mole fraction) (in acetone, 293.15 K): 0.000707
- solubility (mole fraction) (in acetone, 298.15 K): 0.000798
- solubility (mole fraction) (in acetone, 303.15 K): 0.001
- solubility (mole fraction) (in acetone, 308.15 K): 0.00115
- solubility (mole fraction) (in acetone, 313.15 K): 0.00141
- solubility (mole fraction) (in acetone, 318.15 K): 0.00185
- solubility (mole fraction) (in chloroform, 288.15 K): 0.0027
- solubility (mole fraction) (in chloroform, 293.15 K): 0.00314
- solubility (mole fraction) (in chloroform, 298.15 K): 0.00346
- solubility (mole fraction) (in chloroform, 303.15 K): 0.00398
- solubility (mole fraction) (in chloroform, 308.15 K): 0.00466
- solubility (mole fraction) (in chloroform, 313.15 K): 0.00547
- solubility (mole fraction) (in chloroform, 318.15 K): 0.00637
- solubility (mole fraction) (in chloroform, 323.15 K): 0.00717
- solubility (mole fraction) (in chloroform, 328.15 K): 0.00767
- solubility (mole fraction) (in ethyl acetate, 288.15 K): 0.000286
- solubility (mole fraction) (in ethyl acetate, 293.15 K): 0.000294
- solubility (mole fraction) (in ethyl acetate, 298.15 K): 0.000302
- solubility (mole fraction) (in ethyl acetate, 303.15 K): 0.000329
- solubility (mole fraction) (in ethyl acetate, 308.15 K): 0.000357
- solubility (mole fraction) (in ethyl acetate, 313.15 K): 0.000412
- solubility (mole fraction) (in ethyl acetate, 318.15 K): 0.00045
- solubility (mole fraction) (in ethyl acetate, 323.15 K): 0.000535
- solubility (mole fraction) (in ethyl acetate, 328.15 K): 0.000656
- solubility (mole fraction) (in methanol, 288.15 K): 0.000832
- solubility (mole fraction) (in methanol, 293.15 K): 0.000873
- solubility (mole fraction) (in methanol, 298.15 K): 0.000919
- solubility (mole fraction) (in methanol, 303.15 K): 0.00105
- solubility (mole fraction) (in methanol, 308.15 K): 0.00123
- solubility (mole fraction) (in methanol, 313.15 K): 0.00151
- solubility (mole fraction) (in methanol, 318.15 K): 0.00183
- solubility (mole fraction) (in methanol, 323.15 K): 0.00217
- solubility (mole fraction) (in methanol, 328.15 K): 0.00267
- solubility (mole fraction) (in toluene, 288.15 K): 2.41e-05
- solubility (mole fraction) (in toluene, 293.15 K): 2.9e-05
- solubility (mole fraction) (in toluene, 298.15 K): 3.32e-05
- solubility (mole fraction) (in toluene, 303.15 K): 3.98e-05
- solubility (mole fraction) (in toluene, 308.15 K): 4.9e-05
- solubility (mole fraction) (in toluene, 313.15 K): 5.89e-05
- solubility (mole fraction) (in toluene, 318.15 K): 7.91e-05
- solubility (mole fraction) (in toluene, 323.15 K): 0.000104
- solubility (mole fraction) (in toluene, 328.15 K): 0.00013
- solubility (mole fraction) (in water, 288.15 K): 8.31e-07
- solubility (mole fraction) (in water, 293.15 K): 1.19e-06
- solubility (mole fraction) (in water, 298.15 K): 1.62e-06
- solubility (mole fraction) (in water, 303.15 K): 2.07e-06
- solubility (mole fraction) (in water, 308.15 K): 2.53e-06
- solubility (mole fraction) (in water, 313.15 K): 2.91e-06
- solubility (mole fraction) (in water, 318.15 K): 3.2e-06
- solubility (mole fraction) (in water, 323.15 K): 3.47e-06
- solubility (mole fraction) (in water, 328.15 K): 3.75e-06
